Values of other authors, collected in patent publication US20250161451A1, “ULTRASOUND-RESPONSIVE NANOSCALE DELIVERY PLATFORM FOR USE IN THE TREATMENT OF BIOFILM-ASSOCIATED DISEASES” (priority 2023, published 2025).

Test system: MRSA biofilms
Conditions: co-delivery with stimulated phase-shift nanodroplet platform, in vitro

In the case of `CN[C@H](CC(C)C)C(=O)N[C@H]1C(=O)N[C@@H](CC(N)=O)C(=O)N[C@H]2C(=O)N[C@H]3C(=O)N[C@H](C(=O)N[C@H](C(=O)O)c4cc(O)cc(O)c4-c4cc3ccc4O)[C@H](O)c3ccc(c(Cl)c3)Oc3cc2cc(c3O[C@@H]2O[C@H](CO)[C@@H](O)[C@H](O)[C@H]2O[C@H]2C[C@](C)(N)[C@H](O)[C@H](C)O2)Oc2ccc(cc2Cl)[C@H]1O` [vancomycin], the “bactericidal effect on MRSA biofilms” value is given as “strong but incomplete bactericidal effect”.
